From article PMC9821843, “Powerful Potential of Polyfluoroalkyl-Containing 4-Arylhydrazinylidenepyrazol-3-ones for Pharmaceuticals” (Molecules, 2022)
Values after ≈ are worked out from the molar mass of the structure shown.

Key:
[1] = Oxygen radical absorbance capacity (ORAC-FL) assay; settings: n.a. = inactive; i.t.s. = interferes with test system
Outline: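 Fluorescein oxidative degradation by the peroxyl radical generator AAPH is monitored in the presence of test compound, a HAT-based read-out. Activity is expressed relative to Trolox as reference antioxidant.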

[2] = molecular target: T1, human erythrocyte acetylcholinesterase (AChE, EC 3.1.1.7) (Homo sapiens, UniProt P22303); assay: Inhibition of human erythrocyte acetylcholinesterase (Ellman assay); assay type: biochemical; settings: read-out: Inhibition % at 20 µM, Human AChE
T1 construct: human erythrocyte acetylcholinesterase (AChE, EC 3.1.1.7); purchased Sigma-Aldrich (Saint Louis, MO, USA); host or cells: human erythrocytes
T1 sequence (P22303 32-617 isoform P22303-2 limits assumed): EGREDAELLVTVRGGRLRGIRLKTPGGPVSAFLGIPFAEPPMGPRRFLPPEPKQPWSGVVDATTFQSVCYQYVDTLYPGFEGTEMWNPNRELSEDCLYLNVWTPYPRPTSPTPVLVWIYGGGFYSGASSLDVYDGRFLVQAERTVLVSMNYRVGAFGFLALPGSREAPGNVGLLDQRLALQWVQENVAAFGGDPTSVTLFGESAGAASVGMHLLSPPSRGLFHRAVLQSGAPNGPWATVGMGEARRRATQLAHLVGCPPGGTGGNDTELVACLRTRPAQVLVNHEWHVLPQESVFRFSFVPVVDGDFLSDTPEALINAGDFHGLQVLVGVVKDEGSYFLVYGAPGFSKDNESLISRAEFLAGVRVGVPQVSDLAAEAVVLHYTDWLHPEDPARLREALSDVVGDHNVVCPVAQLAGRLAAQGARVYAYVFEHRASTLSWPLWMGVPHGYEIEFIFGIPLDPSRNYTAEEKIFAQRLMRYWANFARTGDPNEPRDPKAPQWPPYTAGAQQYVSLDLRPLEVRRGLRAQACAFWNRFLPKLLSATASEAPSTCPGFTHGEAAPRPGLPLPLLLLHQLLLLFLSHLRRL
Outline: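 Colorimetric Ellman read-out with acetylthiocholine iodide substrate and DTNB, under standard reversible-inhibitor conditions, 2% (v/v) final DMSO. Enzyme-free blanks corrected for non-enzymatic hydrolysis; triplicate runs, IC50 from regression plots.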

[3] = molecular target: porcine liver carboxylesterase (CES, EC 3.1.1.1) (Sus scrofa, UniProt Q29550); assay: Inhibition of porcine liver carboxylesterase (4-NPA colorimetric assay); assay type: biochemical; settings: 20 µM; n.a. = inactive at 20 µM; mean ± SEM, n = 3
porcine liver carboxylesterase (CES, EC 3.1.1.1), sequence (Q29550 19-566): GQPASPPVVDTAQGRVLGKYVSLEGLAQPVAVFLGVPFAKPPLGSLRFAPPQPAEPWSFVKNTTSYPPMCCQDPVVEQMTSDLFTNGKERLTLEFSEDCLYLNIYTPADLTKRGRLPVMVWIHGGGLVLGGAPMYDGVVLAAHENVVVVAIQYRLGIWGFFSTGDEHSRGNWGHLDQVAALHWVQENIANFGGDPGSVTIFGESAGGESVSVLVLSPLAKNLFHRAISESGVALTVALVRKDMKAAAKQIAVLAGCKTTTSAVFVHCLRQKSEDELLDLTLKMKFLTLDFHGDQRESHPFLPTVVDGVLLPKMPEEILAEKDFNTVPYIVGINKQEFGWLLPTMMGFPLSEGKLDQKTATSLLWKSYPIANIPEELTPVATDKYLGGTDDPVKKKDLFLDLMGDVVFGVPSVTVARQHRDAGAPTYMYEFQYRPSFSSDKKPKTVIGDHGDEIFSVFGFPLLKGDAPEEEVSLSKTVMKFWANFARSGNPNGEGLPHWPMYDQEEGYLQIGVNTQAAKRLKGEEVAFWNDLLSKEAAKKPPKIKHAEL
Description: The following enzymes were purchased from Sigma-Aldrich (Saint Louis, MO, USA): porcine liver carboxylesterase (CES, EC 3.1.1.1), human erythrocyte acetylcholinesterase (AChE, EC 3.1.1.7) and equine serum butyrylcholinesterase (BChE, EC 3.1.1.8). Substrates for CES, AChE and BChE were 4-nitrophenyl acetate (4-NPA), acetylthiocholine iodide (ATCh) and butyrylthiocholine iodide (BTCh), respectively, and the colorimetric reagent for the AChE and BChE assays was 5,5’-dithio-bis-(2-nitrobenzoic acid) (DTNB) (Sigma-Aldrich). All the kinetic experiments were performed under standard conditions, according to the protocol of IPAC RAS for a reversible inhibitors study.
The CES (porcine liver) activity was assessed colorimetrically in 0.1 M K/Na phosphate buffer pH 8.0, 25 °C, by measuring the absorbance of 4-nitrophenol at 405 nm. Final enzyme and substrate (4-NPA) concentrations were 0.02 unit/mL and 1 mM, respectively. Reagent blanks included all constituents except enzyme.
Test compounds were dissolved in DMSO. Reaction mixtures contained a final DMSO concentration of 2% (v/v). Enzyme inhibition was first assessed at a single concentration of 20 µM for each compound after a 5 min incubation at 25 °C in three separate experiments. […] Substrate was then added and residual enzyme activity relative to an inhibitor-free control was measured using a Bio-Rad Benchmark Plus microplate reader (Marnes-la-Coquette, France).
Measurements were performed in a Bio-Rad Benchmark Plus microplate reader. Each experiment was performed in triplicate. Plots, linear regressions and values of IC50, were determined using Origin 6.1 for Windows, OriginLab (Northampton, MA, USA). Results were calculated using GraphPad Prism version 6.05 for Windows, GraphPad Software (La Jolla, CA, USA) and presented as mean ± SEM.

human dermal fibroblasts = assay: Cytotoxicity against human dermal fibroblasts (MTT assay); assay type: cell-based; settings: Fibroblast, 72 h, MTT, n.a. = inactive, read-out: IC50, Human Dermal Fibroblasts
Protocol: Cytotoxicity of compounds was evaluated using a culture of human dermal fibroblasts, which were isolated in the Laboratory of Cell Cultures of the Institute of Medical Cell Technologies, Ekaterinburg, Russia and a HeLa tumor cell line obtained at the shared research facility «Vertebrate cell culture collection» of the Institute of Cytology of the Russian Academy of Sciences, St. Petersburg, Russia. Cells were seeded in 96-well plates in the inoculum dose of 2 × 10^5 cells/mL and cultured for 24 h in DMEM, with 1% glutamine in the presence of 10% fetal bovine serum and gentamicin (50 mg/L) at 37 °C, with humidified atmosphere of 5% CO2. Then compounds, which were dissolved in DMSO, were added to the wells at the final concentrations of 10^–7, 10^–6, 10^–5 and 10^–4 M. The cells were incubated with compounds for 72 h, after which cell viability was assessed using the standard MTT assay. The assay was carried out in four replicates with negative (culture medium), positive (solution of the cytotoxic drug camptothecin at a concentration of 3 mM) controls and the solvent control (DMSO). The results of the MTT assay were evaluated on a Tecan Infinite M200 PRO (Tecan Austria GmbH, Grödig, Austria) plate spectrophotometer by comparing the optical density of a formazan solution at 570 nm in the assay and control wells. The half maximal inhibitory concentrations (IC50) were calculated by AAT Bioquest-calculator (https://www.aatbio.com/tools/ic50-calculator (accessed on 14 November 2022)).

[4] = system: Candida albicans RCPF Y 401/NCTC 885/653; assay: Antifungal susceptibility testing, C. albicans; settings: NCTC885, read-out: MIC for fungi strains inhibition, C. albicans
Description: (§1) The solvent was DMSO. […] In each test, a growth control and a sterility control were used.

[5] = system: Epidermophyton floccosum RCPF F 1659/17; assay: Antifungal susceptibility testing, E. floccosum; settings: for MIC: Epidermophyton floccosum, RCPFF1659/17, read-out: MIC for fungi strains inhibition, E. floccosum
Description: as §1

| Structure (SMILES) | ORAC-FL (TE, antioxidant activity in Trolox equivalents) [1] | inhibition at 20 µM [2] [%] | inhibition at 20 µM [3] [%] | IC50 (human dermal fibroblasts) [µM] | MIC [4] [µg/mL] | MIC [5] [µg/mL] | MIC for fungi strains inhibition, E. floccosum [5] [µg/mL] |
| --- | --- | --- | --- | --- | --- | --- | --- |
| O=C1NN=C(C(F)(F)F)/C1=N/Nc1ccccc1 [5a, (Z)-4-(2-Phenylhydrazinylidene)-5-(trifluoromethyl)-2,4-dihydro-3H-pyrazol-3-one] | 2.30 ± 0.20 | 12.8 ± 2.3 |  |  |  |  |  |
| Cc1ccc(N/N=C2\C(=O)NN=C2C(F)(F)F)cc1 [5b, (4Z)-4-[2-(4-Methylphenyl)hydrazinylidene]-5-(trifluoromethyl)-2,4-dihydro-3H-pyrazol-3-one] | 2.37 ± 0.32 |  | 10.1 ± 1.7 | 8.18 ± 0.73 | 200 (≈ 740 µM) | > 200 |  |
| O=C1NN=C(C(F)(F)F)/C1=N/Nc1ccc(Br)cc1 [5c, (4Z)-4-[2-(4-Bromophenyl)hydrazinylidene]-5-(trifluoromethyl)-2,4-dihydro-3H-pyrazol-3-one] | 1.73 ± 0.21 | 3.4 ± 0.6 | 5.5 ± 0.9 |  | > 200 | 12.5 (≈ 37.3 µM) | 12.5 |
| Cc1ccc(N/N=C2\C(=O)N(C)N=C2C(F)(F)F)cc1 [5d, (4Z)-2-Methyl-4-[2-(4-methylphenyl)hydrazinylidene]-5-(trifluoromethyl)-2,4-dihydro-3H-pyrazol-3-one] | 1.27 ± 0.15 | 4.5 ± 1.1 |  |  | > 200 | 200 (≈ 704 µM) |  |
| Cc1ccc(N/N=C2\C(=O)N(c3ccccc3)N=C2C(F)(F)F)cc1 [5f, (4Z)-4-[2-(4-Methylphenyl)hydrazinylidene]-2-phenyl-5-(trifluoromethyl)-2,4-dihydro-3H-pyrazol-3-one] | i.t.s. |  |  | 20.5 ± 2.52 | 200 (≈ 578 µM) | 200 (≈ 578 µM) |  |
| CS(=O)(=O)c1ccc(N/N=C2\C(=O)N(c3ccccc3)N=C2C(F)(F)F)cc1 [5m, (4Z)-4-(2-[4-(Methylsulfonyl)phenyl]hydrazinylidene)-2-phenyl-5-(trifluoromethyl)-2,4-dihydro-3H-pyrazol-3-one] | i.t.s. | 5.5 ± 0.5 | 20.4 ± 1.6 |  | > 200 | > 200 |  |
| Cc1ccc(N/N=C2\C(=O)N(c3ccc(S(N)(=O)=O)cc3)N=C2C(F)(F)F)cc1 [5p, (4Z)-2-[4-(Aminosulfonyl)phenyl]-4-[2-(4-methylphenyl)hydrazinylidene]-5-(trifluoromethyl)-2,4-dihydro-3H-pyrazol-3-one] | i.t.s. |  | 5.7 ± 1 |  | > 200 | > 200 |  |
| Cc1ccc(N/N=C2\C(=O)NN=C2C(F)(F)C(F)(F)F)cc1 [6a, (4Z)-4-[2-(4-Methylphenyl)hydrazinylidene]-5-(pentafluoroethyl)-2,4-dihydro-3H-pyrazol-3-one] | 2.67 ± 0.29 |  | 7.8 ± 1.4 | 13 ± 2.56 |  |  |  |
| Cc1ccc(N/N=C2\C(=O)N(c3ccccc3)N=C2C(F)(F)C(F)(F)F)cc1 [6b, (4Z)-4-[2-(4-Methylphenyl)hydrazinylidene]-5-(pentafluoroethyl)-2-phenyl-2,4-dihydro-3H-pyrazol-3-one] |  | 8.3 ± 1.4 |  | 98.6 ± 6.32 |  |  |  |
| Cc1ccc(N/N=C2\C(=O)NN=C2C(F)(F)C(F)(F)C(F)(F)F)cc1 [7a, (4Z)-5-(Heptafluoropropyl)-4-[2-(4-methylphenyl)hydrazinylidene]-2,4-dihydro-3H-pyrazol-3-one] | 2.80 ± 0.01 | 35.6 ± 0.8 | 9.9 ± 0.7 |  | > 200 | 200 (≈ 540 µM) |  |
| Cc1ccc(N/N=C2\C(=O)N(c3ccccc3)N=C2C(F)(F)C(F)(F)C(F)(F)F)cc1 [7b, (4Z)-5-(Heptafluoropropyl)-4-[2-(4-methylphenyl)hydrazinylidene]-2-phenyl-2,4-dihydro-3H-pyrazol-3-one] |  | 12.6 ± 1.8 |  | 73.8 ± 5.32 |  |  |  |
| CC1=NNC(=O)/C1=N\Nc1ccc(C)cc1 [9a, (4Z)-5-Methyl-4-[2-(4-methylphenyl)hydrazinylidene]-2,4-dihydro-3H-pyrazol-3-one] | 3.23 ± 0.50 |  |  | 24.3 ± 1.82 |  |  |  |
| CC1=NN(c2ccccc2)C(=O)/C1=N\Nc1ccc(C)cc1 [9b, (4Z)-5-Methyl-4-[2-(4-methylphenyl)hydrazinylidene]-2-phenyl-2,4-dihydro-3H-pyrazol-3-one] | 2.67 ± 0.58 |  | 10.3 ± 2.4 | 24.1 ± 3.21 | > 200 | > 200 |  |
